Measurements reported in US11786507B2, “Methods of treating HIV-associated neurological disorders (HAND)” (priority 2020, dated 2023).

Experiments:
[1] = tested on: cerebellar granule neurons; conditions: cited from earlier work
striatal neurons = conditions: cited from earlier work
[2] = tested on: hippocampal slice cultures; conditions: cited from earlier work
iTat mice [3] = assay: Morris Water Maze (MWZ), training stage and probe test; assay type: in vivo, mouse
From the text: (§1) Doxycycline (Dox)-inducible and astrocyte-specific HIV-1 Tat-transgenic mice (iTat) were generated as previously described.^38 Wild-type (Wt, C57BL/6) and α7 nAChR knockout mice (α7^−/−, B6.129S7-Chrna^7tm1Ba/J) were purchased from the Jackson Laboratory (Bar Harbor, ME). All the animal procedures were approved by the Institutional Animal Care and Use Committee. Mice were housed with a 12-hour light and 12-hour dark photoperiod and provided water and food ad libitum. α7^−/− iTat mice were generated by cross breeding iTat mice with α7^−/− mice. α7^−/− genotyping was slightly modified with the JumpStart™ Taq DNA Polymerase-based PCR (JumpStart™ Taq DNA Polymerase, Sigma, catalog #D9307). […] Mice of 10-14 weeks old with body weights of 20-35 grams were fed with Dox-containing diet (0.625 g/kg, Envigo, catalog #TD.01306) as stated.
(§2) Open Field Test (OPT) and Morris Water Maze (MWZ) were performed sequentially using a computerized video tracking system (Anymaze, Stoelting) to determine the spontaneous locomotor activity and spatial learning and memory, respectively. For OPT, each mouse was allowed to move freely around a clear acrylic chamber (40.5×40.5×30.5 cm) for 10 minutes. Travel distance and maximum speed was determined by the AnyMaze software. For MWZ, a circle pool (1.2 m diameter) surrounded with a curtain was divided into four equal quadrants, and four signs with different shape were fixed onto the middle of each quadrant wall above the opaque water (24±1° C.). A hidden platform (1.5 cm below water surface) was put into a certain quadrant. Two stages consisting of 5-day training and probe test were carried out. In the training stage, four trials with a 15-20 minute interval were conducted in the every-day training, and for each trial mice were allowed to freely seek the platform within 90 seconds right after they were randomly put into one quadrant facing to the pool wall. If the mice found the platform within 90 seconds, 10 seconds would be added to allow them staying on the platform for memorizing, however, if failed, they would be directed toward the platform and allowed to stay on it for 15 seconds. Mice that were immobile or floating and unable to find the platform during the training stages were excluded from the experiments. Probe test was carried out on the next day following the 5-day training stage with a 60 seconds trial, and the platform was removed to prevent the mice from climbing onto it during the testing. One day after the behavioral tests, mice were euthanized and the brains were harvested.
To determine if α7 nAChR is involved in HAND, iTat mice were fed with Dox-containing food pellets for 7 days, […], and then subjected to open field test (OPT) for locomotor activity on day 14, and Morris Water Maze test (MWZ) for learning and spatial memory on day 15-20, and euthanized to harvest tissues on day 21 (FIG. 1A). Dox-containing food pellet feeding and PAM injection continued during the next 7 days of behavioral tests. To minimize the effects of injection on behavioral tests, PAM was injected 5 hours after each behavioral test.

iTat mice [4] = assay: Open Field Test (OPT), locomotor activity; assay type: in vivo, mouse
From the text: as §1, §2
To determine if α7 nAChR is involved in HAND, iTat mice were fed with Dox-containing food pellets for 7 days, injected s.c. with a well-studied and highly specific positive allosteric modulator (PAM) PNU-120596 of α7 nAChR^73,74 […], and then subjected to open field test (OPT) for locomotor activity on day 14, and Morris Water Maze test (MWZ) for learning and spatial memory on day 15-20, and euthanized to harvest tissues on day 21 (FIG. 1A). Dox-containing food pellet feeding and PAM injection continued during the next 7 days of behavioral tests. To minimize the effects of injection on behavioral tests, PAM was injected 5 hours after each behavioral test.

iTat mice [5] = assay: Western blotting of SYP, PSD-95, GFAP, Iba-1 in cortex and hippocampus; assay type: in vivo, mouse; conditions: CORT and HIP, SB239063-treated iTat vs Wt
From the text: as §1
A RIPA buffer (50 mM Tris.HCl, pH 8.0, 280 mM NaCl, 0.5% NP-40, 1% C24H39NaO4, 0.2 mM EDTA, 2 mM EGTA and 10% glycerol) supplemented with protease inhibitors (Millipore-Sigma, catalog #S8830) and phosphatase inhibitors (Millipore-Sigma, catalog #4906845001) was used to lyse the brain tissues and cultured cells with brief sonication on ice. Protein concentrations of the lysates were determined using a Bio-Rad DC protein assay kit (Bio-Rad, catalog #5000111). Lysates were denatured in the SDS-PAGE loading buffer at 100° C. for 10 min, then electrophoretically separated by 8-15% SDS-PAGE, blotted onto 0.45 μm polyvinylidene fluoride membrane (GE Healthcare Life Sciences, catalog #10600023), and probed using appropriate antibodies against PSD-95 (Abcam, catalog #ab18258, and 1:2000 dilution), SYP (Abcam, catalog #ab8049, and 1:1000 dilution), Iba-1 (Wako, catalog #016-20001, and 1:500 dilution) and GFAP (DAKO, catalog #z330s, and 1:2000 dilution), p-p38 (Santa Cruz, catalog #sc-166182, and 1:1000 dilution), p38 (Santa cruz, catalog #sc-535, and 1:1000 dilution), p-JNK (Santa cruz, catalog #sc-6254, and 1:1000 dilution), JNK (Santa cruz, catalog #sc-571, and 1:1000 dilution), p-ERK (Santa cruz, catalog #sc-7383, and 1:1000 dilution), and ERK (Santa cruz, catalog #sc-514302, and 1:1000 dilution), α7 nAChR (Alomone, catalog #ANC-007, and 1:1000 dilution) and β-actin (Sigma-Aldrich, catalog #A1978, and 1:2000 dilution). A Bio-Rad ChemicDoc imaging system (Bio-Rad) and Image J were used for image capturing and analysis, respectively. […]

[6] = iTat vs Wt mice, SB239063 15 mg/kg/day i.p.

## C[S+]([O-])c1ccc(-c2nc(-c3ccc(F)cc3)c(-c3ccncc3)[nH]2)cc1 (stereo not drawn) [SB203580]
[1]
  Tat-induced apoptosis: prevented
Striatal neurons
  Tat-induced neurite losses and cell death: failed to block

## Oc1ccc(-c2nc(-c3ccc(F)cc3)c(-c3ccncc3)[nH]2)cc1 [SB202190]
[2]
  Tat-induced inflammation and oxidation: decreased

## COc1nccc(-c2c(-c3ccc(F)cc3)ncn2C2CCC(O)CC2)n1 (stereo not drawn) [SB239063]
iTat mice [3]; SB239063-treated female iTat mice vs vehicle-treated female Wt and iTat and SB239063-treated female Wt
  MWZ probe test platform entries, time at/distance to target quadrant, time at/distance to platform: fewer platform entries, shorter time at target quadrant, distance to target quadrant, time at platform, and distance to platform
iTat mice [3]; Wt mice treated with SB239063
  Cognition, learning and memory effects: Some beneficial effects
iTat mice [3]; female iTat mice, SB239063 vs vehicle
  MWZ probe test latency to platform: longer latency to platform than vehicle-treated female iTat mice
iTat mice [3]; [6]
  MWZ training stage cumulative distance: difference between SB239063-treated male iTat and male Wt mice on day 2 and 3 and female iTat and Wt mice on day 4
  MWZ training stage escape latency: even longer escape latency than Wt mice, with differences on day 3 and 4 for male mice
iTat mice [3]; male iTat vs male Wt mice, SB239063 15 mg/kg/day i.p.
  MWZ probe test platform entries, distance to target quadrant, distance to platform: fewer platform entries, shorter distance to target quadrant and distance to platform than Wt male mice
iTat mice [4]; SB239063 15 mg/kg/day i.p., male and female
  OPT travel distance and maximum speed, Wt vs iTat mice: no significant differences in travel distance and maximum speed between Wt and iTat mice
iTat mice [4]; Wt and iTat mice in response to SB239063
  OPT performance, female vs male mice: both female Wt and female iTat mice performed better in the OPT than male Wt and male iTat mice
iTat mice [4]; female Wt and iTat mice, 15 mg/kg/day i.p.
  OPT travel distance, SB239063-treated vs vehicle-treated: difference of travel distance between SB239063-treated and vehicle-treated female mice
iTat mice [5]; female mice
  SYP, GFAP and Iba-1 expression: lower SYP, GFAP and Iba-1 with differences than SB239063-treated Wt mice
iTat mice [5]; male and female
  PSD-95 expression: lower PSD-95 than SB239063-treated Wt mice
iTat mice [5]; male mice
  SYP and GFAP expression: no differences of SYN and GFAP (except HIP) from SB239063-treated Wt mice
